Biological target: T1, human TMC6 protein (Homo sapiens, UniProt Q7Z403)
T1 construct: expressed in transfected cells; host or cells: CHO-K1
T1 sequence (Q7Z403 1-805): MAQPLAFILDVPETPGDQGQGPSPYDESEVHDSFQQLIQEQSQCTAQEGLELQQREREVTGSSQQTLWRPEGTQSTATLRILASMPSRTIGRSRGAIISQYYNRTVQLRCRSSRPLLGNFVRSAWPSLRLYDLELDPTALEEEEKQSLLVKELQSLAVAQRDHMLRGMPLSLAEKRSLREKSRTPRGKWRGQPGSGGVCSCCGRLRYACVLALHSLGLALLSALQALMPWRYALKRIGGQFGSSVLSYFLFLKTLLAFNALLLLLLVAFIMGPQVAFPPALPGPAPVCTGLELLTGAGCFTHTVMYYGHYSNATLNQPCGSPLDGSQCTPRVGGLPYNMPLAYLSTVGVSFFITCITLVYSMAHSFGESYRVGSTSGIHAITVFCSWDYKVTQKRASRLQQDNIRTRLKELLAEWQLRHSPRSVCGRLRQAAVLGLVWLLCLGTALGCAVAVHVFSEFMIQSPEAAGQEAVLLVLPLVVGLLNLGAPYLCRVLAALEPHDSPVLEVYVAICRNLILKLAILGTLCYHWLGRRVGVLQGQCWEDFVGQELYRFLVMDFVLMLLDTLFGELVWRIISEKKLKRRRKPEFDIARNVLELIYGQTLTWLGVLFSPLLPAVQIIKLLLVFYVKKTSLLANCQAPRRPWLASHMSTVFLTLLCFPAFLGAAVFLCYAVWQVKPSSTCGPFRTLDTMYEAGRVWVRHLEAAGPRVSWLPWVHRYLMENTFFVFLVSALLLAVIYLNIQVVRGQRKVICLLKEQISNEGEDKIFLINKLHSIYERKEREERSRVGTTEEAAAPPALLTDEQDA
Assay: Calcium imaging (YC2.60 FRET) of CHO-K1 cells expressing the human TMC6 gene
Format: cell-based
Settings: stimulation with high-concentration NaCl solution (135 mM NaCl)
Method: After the cultivation, the culture broth was removed. A low-concentration NaCl solution (27 mM NaCl, 1 mM KCl, 0.4 mM CaCl2, 0.2 mM MgCl2, 2 mM Hepes (pH7.3), 1 mM NaHCO3, 2 mM glucose, 2 mM sodium pyruvate, and 112 mM NMDG-Cl) was added to the culture dish, incubation was carried out statically for 5 min, and then, stimulation and observation of cells were started. First, the low-concentration NaCl solution was perfused for approximately 80 sec, to provide a ground state. […] The stimulation with the ATP stimulation solution was carried out by dropping 600 μL of the ATP stimulation solution near cells to be measured on the culture dish with a pipet within 3 sec.
Observation of the cells was carried out with a confocal laser microscope FV1200 (Olympus). […] Activation of the cells was measured using the intracellular calcium concentration as an index. The intracellular calcium concentration was measured by calcium imaging using YC2.60. YC2.60 is one of calcium-sensitive fluorescent proteins based on fluorescence resonance energy transfer (FRET). […] When calcium ions bind to YC2.60, FRET from CFP to YFP is induced, and thereby, CFP fluorescence is attenuated and YFP fluorescence is enhanced. That is, a higher intracellular calcium concentration provides a higher YFP/CFP value of a cell, which value represents the ratio of YFP fluorescence intensity with respect to CFP fluorescence intensity. […]

Compound: [Cl-].[Na+] [NaCl, sodium chloride]
- change of YFP/CFP value (intracellular calcium concentration, cell activation): increase

Source: patent publication US10175228B2, “Method of using transmembrane channel-like protein 6 (TMC6) protein to identify substances affecting salty taste” (priority 2016, dated 2019)
